Source: patent publication US8501732B2, “Aminomethyl quinolone compounds” (Hoffmann-La Roche Inc., priority 2011, dated 2013)
pEC50, pIC50: −log10 of the molar value. Counter-ions that a name gives are not always drawn.

Legend:
JNK1 = JNK1 (Homo sapiens (Human), UniProt P45983); test: In Vitro JNK1 Assay (TR-FRET, phosphorylation of GST-c-Jun); type: biochemical; settings: 0.2 nM active JNK1 kinase, 26.7 nM GST-c-Jun, 2 μM ATP, 30 min at room temperature
Outline: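 IC50 derived from percent inhibition across 10 serially diluted concentrations, with TR-FRET detection of phospho-c-Jun via an anti-phospho-c-Jun antibody after EDTA stop. Substrate was GST-c-Jun 1-79, reacted 30 min at room temperature in pH 7.0 HEPES buffer with MgCl2, DTT, vanadate and BSA.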

[1] = test system: phospho(Ser63)-c-jun in HK-2 cells; test: Cell-Based Assay for JNK Inhibitors (in-cell ELISA, phospho(Ser63)-c-jun after TNFα); settings: HK-2 cells (human proximal tubule cells), 60 minutes compound, then 10 ng/mL TNFα for 30 minutes
Outline: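 HK-2 human proximal tubule cells were seeded at 40,000 cells/well, cultured 24 h, then serum-starved 16–24 h before TNFα stimulation with compound. Phospho(Ser63)-c-jun was quantified by in-cell ELISA on fixed, permeabilised cells, using a rabbit phospho-specific primary (overnight, 4 °C) and an HRP-linked anti-rabbit secondary. Absorbance was read at 450 nm.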

JNK1, sequence (P45983 whole entry): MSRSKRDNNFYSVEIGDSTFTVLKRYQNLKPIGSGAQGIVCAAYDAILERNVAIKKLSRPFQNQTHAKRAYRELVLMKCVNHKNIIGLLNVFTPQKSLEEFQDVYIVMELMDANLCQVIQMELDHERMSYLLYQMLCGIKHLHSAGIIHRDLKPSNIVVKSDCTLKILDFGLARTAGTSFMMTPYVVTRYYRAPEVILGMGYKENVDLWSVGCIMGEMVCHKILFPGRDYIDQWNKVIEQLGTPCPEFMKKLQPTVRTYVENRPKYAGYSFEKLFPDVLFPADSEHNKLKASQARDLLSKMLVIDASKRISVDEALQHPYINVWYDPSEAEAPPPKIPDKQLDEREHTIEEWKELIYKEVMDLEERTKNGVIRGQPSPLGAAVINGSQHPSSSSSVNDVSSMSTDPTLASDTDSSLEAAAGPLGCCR

SMILES | pIC50 (JNK1) | pEC50 [1]
O=C(NCc1cn(-c2ccccc2F)c2cc(F)ccc2c1=O)c1ccc(N2CCOCC2)nc1 [Example I-108, N-[7-Fluoro-1-(2-fluoro-phenyl)-4-oxo-1,4-dihydro-quinolin-3-ylmethyl]-6-morpholin-4-yl-nicotinamide] | 6.92 | 4.33
COC(=O)c1c(CNC(=O)C2CCN(C(C)=O)CC2)c(=O)c2ccc(Cl)cc2n1-c1ccccc1 [Example I-130, 3-{[(1-Acetyl-piperidine-4-carbonyl)-amino]-methyl}-7-chloro-4-oxo-1-phenyl-1,4-dihydro-quinoline-2-carboxylic acid methyl ester] | 6.66 | 4.00
COC(=O)c1c(CNC(=O)c2cnn(C)c2)c(=O)c2ccc(Cl)cc2n1-c1ccccc1 [Example I-121, 7-Chloro-3-{[(1-methyl-1H-pyrazole-4-carbonyl)-amino]-methyl}-4-oxo-1-phenyl-1,4-dihydro-quinoline-2-carboxylic acid methyl ester] | 7.82 | 5.74
COC(=O)c1c(CNC(=O)c2cccc(OC)c2)c(=O)c2ccc(OC)cc2n1-c1ccccc1 [Example I-161, 7-Methoxy-3-[(3-methoxy-benzoylamino)-methyl]-4-oxo-1-phenyl-1,4-dihydro-quinoline-2-carboxylic acid methyl ester] | 7.49 | 4.74
CN(C)C(=O)c1c(CNC(=O)c2cnc(N3CCC(CO)CC3)s2)c(=O)c2ccc(Cl)cc2n1-c1ccccc1 [Example I-26] | 7.01 | 4.85
CN(C)C(=O)c1c(CNC(=O)c2cnc(N3CCOCC3)s2)c(=O)c2ccc(Cl)cc2n1-c1ccccc1 [Example I-14, 7-Chloro-3-{[(2-morpholin-4-yl-thiazole-5-carbonyl)-amino]-methyl}-4-oxo-1-phenyl-1,4-dihydro-quinoline-2-carboxylic acid dimethylamide] | 7.44 | 4.60
COC(=O)c1c(CNC(=O)c2ccc(Cl)nc2)c(=O)c2ccc(F)cc2n1-c1ccccc1 [Example I-170, 3-{[(6-Chloro-pyridine-3-carbonyl)-amino]-methyl}-7-fluoro-4-oxo-1-phenyl-1,4-dihydroquinoline-2-carboxylic acid methyl ester] | 8.00 | 4.36
O=C(NCc1c(-c2ncco2)n(-c2ccccc2)c2cc(Cl)ccc2c1=O)c1ccc(N2CCCCC2)nc1 [Example I-7, 3,4,5,6-Tetrahydro-2H-[1,2′]bipyridinyl-5′-carboxylic acid (7-chloro-2-oxazol-2-yl-4-oxo-1-phenyl-1,4-dihydro-quinolin-3-ylmethyl)-amide] | 7.85 | 5.35
O=C(NCc1c(-c2ncco2)n(-c2ccccc2)c2ncccc2c1=O)c1ccc(N2CCOCC2)nc1 [Example I-10, 6-Morpholin-4-yl-N-(2-oxazol-2-yl-4-oxo-1-phenyl-1,4-dihydro-[1,8]naphthyridin-3-ylmethyl)-nicotinamide] | 7.54 | 5.28
COC(=O)c1c(CNC(=O)c2ccc(-c3nnc[nH]3)cc2)c(=O)c2ccc(Cl)cc2n1-c1ccccc1 [Example I-111, 7-Chloro-4-oxo-1-phenyl-3-{[4-(4H-[1,2,4]triazol-3-yl)-benzoylamino]-methyl}-1,4-dihydro-quinoline-2-carboxylic acid methyl ester] | 8.30 | 5.89
COC(=O)c1c(CNC(=O)c2ccc(C(C)(C)C)cc2)c(=O)c2ccc(OC)cc2n1-c1ccccc1 [Example I-163, 3-[(4-tert-Butyl-benzoylamino)-methyl]-7-methoxy-4-oxo-1-phenyl-1,4-dihydro-quinoline-2-carboxylic acid methyl ester] | 7.33 | 4.85
COC(=O)c1c(CNC(=O)c2ccc(-c3cnns3)cc2)c(=O)c2ccc(Cl)cc2n1-c1ccccc1 [Example I-124, 7-Chloro-4-oxo-1-phenyl-3-[(4-[1,2,3]thiadiazol-5-yl-benzoylamino)-methyl]-1,4-dihydro-quinoline-2-carboxylic acid methyl ester] | 7.77 | 5.11
COC(=O)c1c(CNC(=O)c2ccc(C(N)=O)cc2)c(=O)c2ccc(C(F)(F)F)nc2n1-c1ccccc1 [Example I-155, 3-[(4-Carbamoyl-benzoylamino)-methyl]-4-oxo-1-phenyl-7-trifluoromethyl-1,4-dihydro-[1,8]naphthyridine-2-carboxylic acid methyl ester] | 7.57 | 4.85
COC(=O)c1c(CNC(=O)c2ccccc2)c(=O)c2ccccc2n1-c1ccccc1 [Example I-151, 3-(Benzoylamino-methyl)-4-oxo-1-phenyl-1,4-dihydro-quinoline-2-carboxylic acid methyl ester] | 7.41 | 4.85
CN(C)C(=O)c1c(CNC(=O)c2ccc(N3CCCCC3)nc2)c(=O)c2ccc(Cl)cc2n1-c1ccccc1 [Example I-28, 3,4,5,6-Tetrahydro-2H-[1,2′]bipyridinyl-5′-carboxylic acid (7-chloro-2-dimethylcarbamoyl-4-oxo-1-phenyl-1,4-dihydro-quinolin-3-ylmethyl)-amide trifluoroacetate salt] | 7.04 | 5.01

Now from value to molecule:

pIC50 (JNK1) | pEC50 [1] | SMILES
7.12 | 5.00 | O=C(NCc1cn(-c2ccccc2)c2cc(Cl)ccc2c1=O)c1ccn(Cc2ccccc2Cl)c(=O)c1 [Example I-39, 1-(2-Chloro-benzyl)-2-oxo-1,2-dihydro-pyridine-4-carboxylic acid (7-chloro-4-oxo-1-phenyl-1,4-dihydro-quinolin-3-ylmethyl)-amide]
8.15 | 5.72 | COC(=O)c1c(CNC(=O)c2ccc(OC)cc2)c(=O)c2ccc(Cl)cc2n1-c1ccccc1 [Example I-134, 7-Chloro-3-[(4-methoxybenzoylamino)-methyl]-4-oxo-1-phenyl-1,4-dihydro-quinoline-2-carboxylic acid methyl ester]
7.06 | 4.55 | CN(C)c1cc(C(=O)NCc2cn(-c3ccccc3)c3cc(Cl)ccc3c2=O)ccn1 [Example I-41, N-(7-Chloro-4-oxo-1-phenyl-1,4-dihydro-quinolin-3-ylmethyl)-2-dimethyl amino-isonicotinamide]
7.60 | 5.38 | O=C(NCc1c(-c2ncco2)n(-c2ccccc2)c2cc(Cl)ccc2c1=O)c1ccc2c(c1)OCO2 [Example I-8, Benzo[1,3]dioxole-5-carboxylic acid (7-chloro-2-oxazol-2-yl-4-oxo-1-phenyl-1,4-dihydro-quinolin-3-ylmethyl)-amide]
7.82 | 5.15 | COC(=O)c1c(CNC(=O)c2ccc(F)c(Cl)c2)c(=O)c2ccc(Cl)cc2n1-c1ccccc1 [Example I-141, 7-Chloro-3-[(3-chloro-4-fluoro-benzoylamino)-methyl]-4-oxo-1-phenyl-1,4-dihydro-quinoline-2-carboxylic acid methyl ester]
7.62 | 4.41 | CS(=O)(=O)C1CCN(c2ccc(C(=O)NCc3cn(-c4ccccc4)c4cc(Cl)ccc4c3=O)cn2)CC1 [Example I-69, 4-Methanesulfonyl-3,4,5,6-tetrahydro-2H-[1,2′]bipyridinyl-5′-carboxylic acid (7-chloro-4-oxo-1-phenyl-1,4-dihydro-quinolin-3-ylmethyl)-amide]
8.15 | 5.39 | COC(=O)c1c(CNC(=O)c2ccc(-c3ncc[nH]3)cc2)c(=O)c2ccc(Cl)cc2n1-c1ccccc1 [Example I-114, 7-Chloro-3-{[4-(1H-imidazol-2-yl)-benzoylamino]-methyl}-4-oxo-1-phenyl-1,4-dihydro-quinoline-2-carboxylic acid methyl ester]
8.15 | 5.70 | COC(=O)c1c(CNC(=O)c2ccc3scnc3c2)c(=O)c2ccc(Cl)cc2n1-c1ccccc1 [Example I-113, 3-{[(Benzothiazole-5-carbonyl)-amino]-methyl}-7-chloro-4-oxo-1-phenyl-1,4-dihydro-quinoline-2-carboxylic acid methyl ester]
7.26 | 4.00 | NS(=O)(=O)c1ccc(C(=O)NCc2cn(-c3ccccc3)c3cc(Cl)ccc3c2=O)cc1 [Example I-36, N-(7-Chloro-4-oxo-1-phenyl-1,4-dihydro-quinolin-3-ylmethyl)-4-sulfamoyl-benzamide]
8.10 | 5.32 | COC(=O)c1c(CNC(=O)c2cccc(OC)c2)c(=O)c2ccc(Cl)cc2n1-c1ccccc1 [Example I-135, 7-Chloro-3-[(3-methoxybenzoylamino)-methyl]-4-oxo-1-phenyl-1,4-dihydro-quinoline-2-carboxylic acid methyl ester]
7.41 | 6.00 | COC(=O)c1c(CNC(=O)c2ccc(OC)c(OC)c2)c(=O)c2ccc(Cl)cc2n1-c1ccccc1 [Example I-143, 7-Chloro-3-[(3,4-dimethoxy-benzoylamino)-methyl]-4-oxo-1-phenyl-1,4-dihydro-quinoline-2-carboxylic acid methyl ester]
7.92 | 5.10 | COC(=O)c1c(CNC(=O)c2ccncc2)c(=O)c2ccc(Cl)cc2n1-c1ccccc1 [Example I-136, 7-Chloro-4-oxo-1-phenyl-3-{[(pyridine-4-carbonyl)-amino]-methyl}-1,4-di-hydro-quinoline-2-carboxylic acid methyl ester]
7.85 | 5.00 | COC(=O)c1c(CNC(=O)c2ccc(F)cc2)c(=O)c2ccc(Cl)cc2n1-c1ccccc1 [Example I-140, 7-Chloro-3-[(4-fluoro-benzoylamino)-methyl]-4-oxo-1-phenyl-1,4-dihydro-quinoline-2-carboxylic acid methyl ester]
